The assay concerns human FXN. Put plainly: EC50 assay: FXN mRNA expression by qRT-PCR in GM15850 cells after 48 hrs compound treatment. The class given is cell-based. The conditions noted are these: 48 hrs incubation, hFXN expression normalized to hGAPDH (qRT-PCR), read-out: EC50 WT (nM, 48 hr). The essentials:
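FXN transcript, normalized to GAPDH by TaqMan qRT-PCR, read out after 48 hrs of compound on GM15850 cells plated at 150,000 per well. Dosing used five 3-fold steps from 150 nM final, vehicle 0.01% DMSO.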
On the technique in general: Real-time PCR tracks product formation cycle by cycle.

The structures appear in SMILES notation. Where two headings read alike, the source gives them in different places.

In general, EC50 refers to the midpoint of the concentration-response curve. For `Cc1sc2c(c1C)C(c1ccc(Cl)cc1)=N[C@@H](CC(=O)N1CCC(C#CC#CC3CCN(CCOCCNC(=O)CCNC(=O)c4nc(NC(=O)CCNC(=O)c5cc(NC(=O)c6nc(NC(=O)CCNC(=O)c7cc(NC(=O)c8nccn8C)cn7C)cn6C)cn5C)cn4C)CC3)CC1)c1nnc(C)n1-2` [Compound 160], the EC50 (Homo sapiens) was below 100 nM.
As for `Cc1sc2c(c1C)C(c1ccc(Cl)cc1)=N[C@@H](CC(=O)N1CCC(C#CC#CC3CCN(CCNC(=O)CCNC(=O)c4nc(NC(=O)CCNC(=O)c5cc(NC(=O)c6nc(NC(=O)CCNC(=O)c7cc(NC(=O)c8nccn8C)cn7C)cn6C)cn5C)cn4C)CC3)CC1)c1nnc(C)n1-2` [Compound 161], the EC50 (Homo sapiens) was below 100 nM.
`Cc1sc2c(c1C)C(c1ccc(Cl)cc1)=N[C@@H](CC(=O)N1CCC(C#CC#CCNCCOCCNC(=O)CCNC(=O)c3nc(NC(=O)CCNC(=O)c4cc(NC(=O)c5nc(NC(=O)CCNC(=O)c6cc(NC(=O)c7nccn7C)cn6C)cn5C)cn4C)cn3C)CC1)c1nnc(C)n1-2` [Compound 163]: for the setting “Homo sapiens”, the EC50 was below 100 nM.
`Cc1sc2c(c1C)C(c1ccc(Cl)cc1)=N[C@@H](CC(=O)N1CCC(C#CC#CCNC(=O)CCNC(=O)c3nc(NC(=O)CCNC(=O)c4cc(NC(=O)c5nc(NC(=O)CCNC(=O)c6cc(NC(=O)c7nccn7C)cn6C)cn5C)cn4C)cn3C)CC1)c1nnc(C)n1-2` [Compound 164]: the EC50 (Homo sapiens) is above 500 nM.
For `Cc1cc(F)cc(C)c1Oc1ccc(C(C)(C)O)cc1-c1cn(C)c(=O)c2[nH]c(C(=O)N3CCN(CC4CCN(CCOCCOCCOCCOCCOCCOCCNC(=O)CCNC(=O)c5nc(NC(=O)CCNC(=O)c6cc(NC(=O)c7nc(NC(=O)CCNC(=O)c8cc(NC(=O)c9nccn9C)cn8C)cn7C)cn6C)cn5C)CC4)CC3)cc12` [Compound 167], the EC50 (Homo sapiens) is above 500 nM.
Turning to `Cc1cc(F)cc(C)c1Oc1ccc(C(C)(C)O)cc1-c1cn(C)c(=O)c2[nH]c(C(=O)N3CCC(CN4CCN(CCOCCOCCOCCOCCOCCOCCNC(=O)CCNC(=O)c5nc(NC(=O)CCNC(=O)c6cc(NC(=O)c7nc(NC(=O)CCNC(=O)c8cc(NC(=O)c9nccn9C)cn8C)cn7C)cn6C)cn5C)CC4)CC3)cc12` [Compound 168], the EC50 (Homo sapiens) was 100 to 500 nM.
`Cc1cc(F)cc(C)c1Oc1ccc(C(C)(C)O)cc1-c1cn(C)c(=O)c2[nH]c(C(=O)N3CCN(C4CCN(CCOCCOCCOCCOCCC(=O)NCCCN(CCCNC(=O)CCNC(=O)c5nc(NC(=O)CCNC(=O)c6cc(NC(=O)c7nc(NC(=O)CCNC(=O)c8cc(NC(=O)c9nccn9C)cn8C)cn7C)cn6C)cn5C)CC(F)(F)F)CC4)CC3)cc12` [Compound 169]: the 50% effective concentration (EC50) (Homo sapiens) fell in the range of 100 to 500 nM.
Still for that read-out and setting: next, `Cc1cc(F)cc(C)c1Oc1ccc(C(C)(C)O)cc1-c1cn(C)c(=O)c2[nH]c(C(=O)N3CCC(N4CCN(CCOCCOCCOCCOCCC(=O)NCCCN(CCCNC(=O)CCNC(=O)c5nc(NC(=O)CCNC(=O)c6cc(NC(=O)c7nc(NC(=O)CCNC(=O)c8cc(NC(=O)c9nccn9C)cn8C)cn7C)cn6C)cn5C)CC(F)(F)F)CC4)CC3)cc12` [Compound 170]: above 500 nM.
On the same count and under the same terms, in the case of `Cc1cc(F)cc(C)c1Oc1ccc(C(C)(C)O)cc1-c1cn(C)c(=O)c2[nH]c(C(=O)NC3CCN(CC#CC#CC4CCN(CCOCCOCCOCCOCCOCCOCCOCCNC(=O)CCNC(=O)c5nc(NC(=O)CCNC(=O)c6cc(NC(=O)c7nc(NC(=O)CCNC(=O)c8cc(NC(=O)c9nccn9C)cn8C)cn7C)cn6C)cn5C)CC4)CC3)cc12` [Compound 175] it was below 100 nM; in that of `Cc1cc(F)cc(C)c1Oc1ccc(C(C)(C)O)cc1-c1cn(C)c(=O)c2[nH]c(C(=O)NC3CCN(CC#CC#CC4CCN(CCOCCOCCNC(=O)CCNC(=O)c5nc(NC(=O)CCNC(=O)c6cc(NC(=O)c7nc(NC(=O)CCNC(=O)c8cc(NC(=O)c9nccn9C)cn8C)cn7C)cn6C)cn5C)CC4)CC3)cc12` [Compound 176], below 100 nM.
In the case of `Cc1cc(F)cc(C)c1Oc1ccc(C(C)(C)O)cc1-c1cn(C)c(=O)c2[nH]c(C(=O)Nc3ccc(OCCOCCOCCOCCOCCOCCOCCOCCOCCOCCNC(=O)CCNC(=O)c4nc(NC(=O)CCNC(=O)c5cc(NC(=O)c6nc(NC(=O)CCNC(=O)c7cc(NC(=O)c8nccn8C)cn7C)cn6C)cn5C)cn4C)cc3)cc12` [Compound 195], the EC50 (Homo sapiens) is below 100 nM.
For `C=C(C)c1ccc(Oc2c(C)cc(F)cc2C)c(-c2cn(C)c(=O)c3[nH]c(C(=O)Nc4ccc(OCCOCCOCCOCCOCCOCCOCCOCCOCCNC(=O)CCNC(=O)c5nc(NC(=O)CCNC(=O)c6cc(NC(=O)c7nc(NC(=O)CCNC(=O)c8cc(NC(=O)c9nccn9C)cn8C)cn7C)cn6C)cn5C)cc4)cc23)c1` [Compound 197, N-(5-{[2-({2-[(2-{[26-(4-{14-[2-(4-fluoro-2,6-dimethylphenoxy)-5-(prop-1-en-2-yl)phenyl]-6-methyl-7-oxo-1H-pyrrolo[2,3-c]pyridine-2-amido}phenoxy)-3,6,9,12,15,18,21,24-octaoxahexacosan-1-yl]carbamoyl]ethyl)carbamoyl]-1-methylimidazol-4-yl]carbamoyl)ethyl]carbamoyl]-1-methylpyrrol-3-yl)-1-methyl-4-(3-{[1-methyl-4-(1-methylimidazole-2-amido)pyrrol-2-yl]formamido]propanamido)imidazole-2-carboxamide], the EC50 fell in the range of 100 to 500 nM.
As for `Cc1cc(F)cc(C)c1Oc1ccc(C(C)(C)O)cc1-c1cn(C)c(=O)c2[nH]c(C(=O)Nc3ccc(OCCOCCOCCOCCOCCOCCOCCOCCOCCNC(=O)CCNC(=O)c4nc(NC(=O)CCNC(=O)c5cc(NC(=O)c6nc(NC(=O)CCN)cn6C)cn5C)cn4C)cc3)cc12` [Compound 199, 4-(3-aminopropanamido)-N-(5-{[2-({2-[(2-{[26-(4-{4-[2-(4-fluoro-2,6-dimethylphenoxy)-5-(2-hydroxypropan-2-yl)phenyl]-6-methyl-7-oxo-1H-pyrrolo[2,3-c]pyridine-2-amido}phenoxy)-3,6,9,12,15,18,21,24-octaoxahexacosan-1-yl]carbamoyl}ethyl)carbamoyl]-1-methylimidazol-4-yl}carbamoyl)ethyl]carbamoyl}-1-methylpyrrol-3-yl)-1-methylimidazole-2-carboxamide], the EC50 (Homo sapiens) is above 500 nM.
For `Cc1sc2c(c1C)C(c1ccc(NC(=O)CCCCCCCCCCCCCCCNCCc3c[nH]c4ccccc34)cc1)=N[C@@H](CC(=O)Nc1ccc(OCCOCCOCCOCCOCCOCCOCCOCCOCCNC(=O)CCNC(=O)c3nc(NC(=O)CCNC(=O)c4cc(NC(=O)c5nc(NC(=O)CCNC(=O)c6cc(NC(=O)c7nccn7C)cn6C)cn5C)cn4C)cn3C)cc1)c1nnc(C)n1-2` [Compound 200], the concentration giving a half-maximal response (EC50) (Homo sapiens) is above 500 nM.
As to `CCCCCCCC(=O)N(CC#CC#Cc1ccc(NC(=O)C[C@@H]2N=C(c3ccc(Cl)cc3)c3c(sc(C)c3C)-n3c(C)nnc32)cc1)CCOCCOCCOCCOCCOCCNC(=O)CCNC(=O)c1nc(NC(=O)CCNC(=O)c2cc(NC(=O)c3nc(NC(=O)CCNC(=O)c4cc(NC(=O)c5nccn5C)cn4C)cn3C)cn2C)cn1C` [Compound 201], the EC50 (Homo sapiens) was above 500 nM.
With `CCCCCCCC(=O)Nc1ccc(C2=N[C@@H](CC(=O)Nc3ccc(OCCOCCOCCOCCOCCOCCOCCOCCOCCNC(=O)CCNC(=O)c4nc(NC(=O)CCNC(=O)c5cc(NC(=O)c6nc(NC(=O)CCNC(=O)c7cc(NC(=O)c8nccn8C)cn7C)cn6C)cn5C)cn4C)cc3)c3nnc(C)n3-c3sc(C)c(C)c32)cc1` [Compound 203], the EC50 (Homo sapiens) was 100 to 500 nM.
As for `CCCCCCCCCCCCCCCC(=O)Nc1ccc(C2=N[C@@H](CC(=O)Nc3ccc(OCCOCCOCCOCCOCCOCCOCCOCCOCCNC(=O)CCNC(=O)c4nc(NC(=O)CCNC(=O)c5cc(NC(=O)c6nc(NC(=O)CCNC(=O)c7cc(NC(=O)c8nccn8C)cn7C)cn6C)cn5C)cn4C)cc3)c3nnc(C)n3-c3sc(C)c(C)c32)cc1` [Compound 204], the EC50 (Homo sapiens) was above 500 nM.
In the case of `Cc1cc(F)cc(C)c1Oc1ccc(C(C)(C)O)cc1-c1cn(C)c(=O)c2[nH]c(C(=O)Nc3ccc(OCCOCCOCCOCCOCCOCCOCCOCCNC(=O)CCNC(=O)c4nc(NC(=O)CCNC(=O)c5cc(NC(=O)c6nc(NC(=O)CCNC(=O)c7cc(NC(=O)c8nccn8C)cn7C)cn6C)cn5C)cn4C)cc3)cc12` [Compound 205, N-(5-{[2-({2-[(2-{[23-(4-{4-[2-(4-fluoro-2,6-dimethylphenoxy)-5-(2-hydroxypropan-2-yl)phenyl]-6-methyl-7-oxo-1H-pyrrolo[2,3-c]pyridine-2-amido}phenoxy)-3,6,9,12,15,18,21-heptaoxatricosan-1-yl]carbamoyl}ethyl)carbamoyl]-1-methylimidazol-4-yl}carbamoyl)ethyl]carbamoyl}-1-methylpyrrol-3-yl)-1-methyl-4-(3-{[1-methyl-4-(1-methylimidazole-2-amido)pyrrol-2-yl]formamido}propanamido)imidazole-2-carboxamide], the EC50 (Homo sapiens) is below 100 nM.
For the molecule `Cn1cc(NC(=O)c2nc(NC(=O)CCNC(=O)c3cc(NC(=O)c4nccn4C)cn3C)cn2C)cc1C(=O)NCCC(=O)Nc1cn(C)c(C(=O)NCCC(=O)NCCOCCOCCOCCOCCOCCOCCOCCOCCOc2ccc(NC(=O)c3cc4c(-c5cc(S(C)(=O)=O)ccc5Oc5ccc(F)cc5F)cn(C)c(=O)c4[nH]3)cc2)n1` [Compound 207, N-(5-{[2-({2-[(2-{[26-(4-{14-[2-(2,4-difluorophenoxy)-5-methanesulfonylphenyl]-6-methyl-7-oxo-1H-pyrrolo[2,3-c]pyridine-2-amido}phenoxy)-3,6,9,12,15,18,21,24-octaoxahexacosan-1-yl]carbamoyl]ethyl)carbamoyl]-1-methylimidazol-4-yl}carbamoyl)ethyl]carbamoyl}-1-methylpyrrol-3-yl)-1-methyl-4-(3-{[1-methyl-4-(1-methylimidazole-2-amido)pyrrol-2-yl]formamido]propanamido)imidazole-2-carboxamide], the 50% effective concentration (EC50) (Homo sapiens) is below 100 nM.
With `COCCOCCOCCOCCOCCOCCOc1cc(NC(=O)C[C@@H]2N=C(c3ccc(Cl)cc3)c3c(sc(C)c3C)-n3c(C)nnc32)ccc1OCCOCCOCCOCCOCCOCCOCCOCCOCCNC(=O)CCNC(=O)c1nc(NC(=O)CCNC(=O)c2cc(NC(=O)c3nc(NC(=O)CCNC(=O)c4cc(NC(=O)c5nccn5C)cn4C)cn3C)cn2C)cn1C` [Compound 211], the EC50 (Homo sapiens) fell in the range of 100 to 500 nM.

These data come from patent US20240124491A1, “METHODS AND COMPOUNDS FOR TREATING FRIEDREICH'S ATAXIA” (Design Therapeutics, Inc., priority 2021, published 2024).
